Laboratory results taken from US6875761B2 (Eisai Co., Ltd., priority 1997, dated 2005).
Counter-ions that a name gives are not always drawn.

First: CCCCC(=O)c1ccc(-c2cc3ccsc3c(N3CCN(CC)CC3)n2)cc1 (as salt: hydrochloride) [Example 271, 7-(1-ethylpiperazin-4-yl)-5-(4-pentanoylphenyl)phenyl)thieno[2,3-c]pyridine dihydrochloride]
Second: CCN1CCN(c2nc(-c3ccc(C(=O)CC(C)C)cc3)cc3ccsc23)CC1 (as salt: hydrochloride) [Example 272, 7-(1-ethylpiperazin-4-yl)-5-[4-(3-methylbutanoyl)phenyl]thieno[2,3-c]pyridine dihydrochloride]
The melting point of the first is lower: 109 to 114 °C for the first, 139 to 141 °C for the second.

First: CCN1CCN(c2nc(-c3ccc(C(=O)NC4CCCCC4)cc3)cc3ccsc23)CC1 (as salt: hydrochloride) [Example 273, dihydrochloride]
Second: CCN1CCN(c2nc(-c3ccc(C(=O)N4CCCC4)cc3)cc3ccsc23)CC1 (as salt: hydrochloride) [Example 274, 7-(1-ethylpiperazin-4-yl)-5-[4-(pyrrolidinyl-1-carbonyl)phenyl]thieno[2,3-c]pyridine dihydrochloride]
The melting point of the first is higher: 160 to 165 °C for the first, 143 to 146 °C for the second.

First: COc1ccc(-c2cc3ccsc3c(N3CCN(CCO)CC3)n2)cc1 (as salt: hydrochloride) [Example 276, 5-(4-methoxyphenyl)-7-[4-(2-hydroxyethyl)piperazin-1-yl]thieno[2,3-c]pyridine hydrochloride]
Second: CC(C)(O)COc1ccc(-c2cc3sccc3c(N3CCN(CCO)CC3)n2)cc1 (as salt: hydrochloride) [Example 296, 6-[4-(2-methyl-2-hydroxypropoxy)phenyl]-4-[4-(2-hydroxyethyl)piperazin-1-yl]thieno]3,2-c]pyridine hydrochloride]
The melting point of the first is lower: 129 to 131 °C for the first, 139 to 142 °C for the second.

First: CN1CCN(c2nc(-c3ccc(OCCO)cc3)cc3sccc23)CC1 (as salt: hydrochloride) [Example 279, 4-(4-methylpiperazin-1-yl)-6-[4-(2-hydroxyethoxy)phenyl]thieno[3,2-c]pyridine hydrochloride]
Second: CCN1CCN(c2nc(-c3ccc(OCCO)cc3)cc3sccc23)CC1 (as salt: hydrochloride) [Example 286, dihydrochloride]
The melting point of the first is higher: 148 to 150 °C for the first, 128 to 129 °C for the second.

Compared with `CCN1CCN(c2nc(-c3cccc(OCCO)c3)cc3sccc23)CC1` (as salt: hydrochloride) [Example 284, 4-(1-ethylpiperazin-4-yl)-6-[3-(2-hydroxyethoxy)phenyl]thieno-[3,2-c]pyridine dihydrochloride], `CCN1CCN(c2nc(-c3cccc(OCCO)c3)cc3ccoc23)CC1` (as salt: hydrochloride) [Example 298, 7-(1-ethylpiperazin-4-yl)-5-[3-(2-hydroxyethoxy)phenyl]furo[2,3-c]pyridine dihydrochloride] is lower in melting point: 126 to 130 °C for the first, 117 to 121 °C for the second.

First: CCN1CCN(c2nc(-c3ccc(CCC(C)O)cc3)cc3sccc23)CC1 (stereo not drawn) (as salt: hydrochloride) [Example 285, 4-(1-ethylpiperazin-4-yl)-6-[4-(3-hydroxybutyl)phenyl]thieno[3,2-c]pyridine hydrochloride]
Second: CCN1CCN(c2nc(-c3ccc(CCC(C)(C)O)cc3)cc3sccc23)CC1 (as salt: hydrochloride) [Example 291, 4-[4-ethylpiperazin-1-yl)-6-[4-(3-hydroxy-3-methylbutyl)phenyl]thieno[3,2-c]pyridine dihydrochloride]
The melting point of the first is higher: 122 to 124 °C for the first, 116 to 117.5 °C for the second.

First: CN1CCN(c2nc(-c3ccc(OCC(C)(C)O)cc3)cc3sccc23)CC1 (as salt: hydrochloride) [Example 288, 6-[4-(2-methyl-2-hydroxypropoxy)phenyl]-4-(4-methylpiperazin-1-yl)thieno[3,2-c]pyridine hydrochloride]
Second: CCCN1CCN(c2nc(-c3ccc(OCC(C)(C)O)cc3)cc3sccc23)CC1 (as salt: hydrochloride) [Example 289, 6-[4-(2-methyl-2-hydroxypropoxy)phenyl]-4-(4-propylpiperazin-1-yl)thieno[3,2-c]pyridine hydrochloride]
The melting point of the first is higher: 135 to 138 °C for the first, 133 to 135 °C for the second.

Compared with `CCN1CCN(c2nc(-c3ccc(OCCCC(C)(C)O)cc3)cc3sccc23)CC1` (as salt: hydrochloride) [Example 292, 6-[4-(4-methyl-4-hydroxypentyloxy)phenyl]-4-(4-ethylpiperazin-1-yl)thieno[3,2-c]pyridine], `CC(C)(O)COc1ccc(-c2cc3sccc3c(N3CCN(CCF)CC3)n2)cc1` (as salt: hydrochloride) [Example 294, 6-[4-(2-methyl-2-hydroxypropoxy)phenyl]-4-[4-(2-fluoroethyl)piperazin-1-yl]thieno[3,2-c]pyridine] is higher in melting point: 116 to 118 °C for the first, 135 to 137 °C for the second.

First: CCCN1CCN(c2nc(-c3ccc(OCCO)cc3)cc3sccc23)CC1 (as salt: hydrochloride) [Example 293, 4-(4-propylpiperazin-1-yl)-6-[4-(2-hydroxyethoxy)phenyl]thieno[3,2-c]pyridine]
Second: OCCOc1ccc(-c2cc3sccc3c(N3CCN(CCF)CC3)n2)cc1 (as salt: hydrochloride) [Example 295, 4-[4-(2-fluoroethyl)piperazin-1-yl]-6-[4-(2-hydroxyethoxy)phenyl]thieno[3,2-c]pyridine]
The melting point of the first is lower: 128 to 130 °C for the first, 138 to 140 °C for the second.

Compared with `CC(C)(O)COc1ccc(-c2cc3sccc3c(N3CCN(CCc4ccccc4)CC3)n2)cc1` (as salt: hydrochloride) [Example 297, 6-[4-(2-methyl-2-hydroxypropoxy)phenyl]-4-[4-(2-phenylethyl)piperazin-1-yl]thieno[3,2-c]pyridine], `CCN1CCN(c2nc(-c3ccc(OCC(C)(C)O)cc3)cc3ccccc23)CC1` (as salt: hydrochloride) [Example 309, 1-(1-ethylpiperazin-4-yl)-3-[4-(2-hydroxy-2-methylpropoxy)phenyl]isoquinoline dihydrochloride] is lower in melting point: 140 to 142 °C for the first, 129 to 134 °C for the second.

First: CCN1CCN(c2nc(-c3ccc(CCCO)cc3)cc3ccoc23)CC1 (as salt: hydrochloride) [Example 299, 7-(1-ethylpiperazin-4-yl)-5-[4-(3-hydroxypropyl)phenyl]furo[2,3-c]pyridine dihydrochloride]
Second: CCN1CCN(c2nc(-c3ccc(CCC(C)O)cc3)cc3ccoc23)CC1 (stereo not drawn) (as salt: hydrochloride) [Example 300, 7-(1-ethylpiperazin-4-yl)-5-[4-(3-hydroxybutyl)phenyl]furo[2,3-c]pyridine dihydrochloride]
The melting point of the first is lower: 126 to 130 °C for the first, 175 to 177 °C for the second.

Compared with `COc1ccc(-c2cc3ccccc3c(N3CCN(CC(N)=O)CC3)n2)cc1` (as salt: hydrochloride) [Example 314, 1-[1-(carbamoylmethyl)piperazin-4-yl]-3-(4-methoxyphenyl)isoquinoline dihydrochloride], `COc1ccc(-c2cc3ccccc3c(N(C)CCN(C)C)n2)cc1` (as salt: hydrochloride) [Example 319, 1-{N-[2-(2-dimethylamino)ethyl]-N-methylamino}-3-(4-methoxyphenyl)isoquinoline dihydrochloride] is higher in melting point: 153 to 155 °C for the first, 160 to 162 °C for the second.
